# Molecular target: Pol theta (1-899) (Homo sapiens (Human), UniProt O75417)
# Experiment: Pol theta ATPase activity, NADH oxidation-coupled enzymatic assay
# Type: biochemical
# Conditions: Pol theta (1-899) 10 nM, ATP, dT50 ssDNA, absorbance 340 nm, 10-point dilution series; read-out: ATPase NADH coupling:Standard Screening:hPolQ IC50
# Protocol: The ability of the compounds of Formula (I) to inhibit ATPase activity of Pol theta (1-899) was determined using the assay described below.
# Pol Theta ATPase activity was determined by measuring the rate of ATP turn over in a NADH oxidation-coupled enzymatic assay. 10-point dilution series of compounds were used in a 384 well format for the inhibition assays. Pol theta (1-899) (10 nM) in assay buffer (20 mM Tris HCl (pH 7.80), 80 mM KCl, 10 mM MgCl2, 1 mM DTT, 0.01% BSA, 0.01% Tween, 5% glycerol) was transferred to the test wells (20 μL), except the low control wells (20 μL of assay buffer was added to the low control wells). The plate was then incubated at room temperature for 15 min. An equal volume (20 μL) of 100 μM ATP, 300 nM dT50 (single-stranded DNA (ssDNA) containing 50 thymine bases), 300 μM NADH, 6 mM PEP, 10 U/mL lactate dehydrogenase and 20 U/mL pyruvate kinase in assay buffer was added to all the test wells. The plate was then centrifuged at 1000 rpm for 1 min. The reaction was monitored for 30 min by measuring absorbance (λ=340 nm) in a Tecan Spark multimode plate reader every minute. The high control (DMSO with enzyme) with low absorbance intensity represents no inhibition of ATPase reaction while the low control (DMSO with buffer) with high absorbance intensity represents full inhibition of ATPase activity. Slope of the reaction progress curves were used to calculate the rate of ATP hydrolysis. The rates were used to determine the percent inhibition using a four-parameter inhibition model to generate IC50, Hill slope and max inhibition.
# Pol theta (1-899), sequence (O75417 1-899): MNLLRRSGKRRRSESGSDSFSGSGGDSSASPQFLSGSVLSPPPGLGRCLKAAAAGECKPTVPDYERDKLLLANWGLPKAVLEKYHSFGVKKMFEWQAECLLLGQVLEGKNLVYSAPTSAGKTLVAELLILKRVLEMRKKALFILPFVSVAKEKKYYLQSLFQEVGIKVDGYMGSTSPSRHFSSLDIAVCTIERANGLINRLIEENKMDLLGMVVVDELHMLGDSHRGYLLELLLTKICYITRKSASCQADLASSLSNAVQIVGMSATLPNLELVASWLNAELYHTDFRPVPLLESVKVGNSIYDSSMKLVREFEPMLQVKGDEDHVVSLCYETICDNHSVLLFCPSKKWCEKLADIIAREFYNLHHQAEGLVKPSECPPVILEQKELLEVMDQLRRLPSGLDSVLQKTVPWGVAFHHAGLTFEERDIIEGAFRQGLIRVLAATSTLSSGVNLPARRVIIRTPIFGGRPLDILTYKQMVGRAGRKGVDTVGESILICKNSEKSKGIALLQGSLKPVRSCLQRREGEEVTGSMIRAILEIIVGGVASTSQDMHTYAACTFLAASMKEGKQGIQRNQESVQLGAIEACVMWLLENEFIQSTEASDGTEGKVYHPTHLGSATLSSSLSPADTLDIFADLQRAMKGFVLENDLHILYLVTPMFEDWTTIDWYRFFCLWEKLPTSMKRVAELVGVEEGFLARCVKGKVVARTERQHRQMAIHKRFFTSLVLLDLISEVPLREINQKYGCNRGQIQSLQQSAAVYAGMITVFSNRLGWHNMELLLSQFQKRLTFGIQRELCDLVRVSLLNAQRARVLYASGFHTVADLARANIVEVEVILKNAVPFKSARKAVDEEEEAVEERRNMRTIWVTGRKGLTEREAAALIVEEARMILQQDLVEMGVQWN
row,SMILES,IC50
1,"O=C(Nc1nnc(OCc2ccc(Cl)cc2)s1)c1ccncc1N1CCOCC1 [Example 59, N-(5-((4-chlorobenzyl)oxy)-1,3,4-thiadiazol-2-yl)-3-morpholinoisonicotinamide]",200 to 500 nM
2,"O=C1CN(c2ncccc2C(=O)Nc2nnc(OCc3ccc(Cl)cc3)s2)CCCN1 [Example 63, N-(5-((4-chlorobenzyl)oxy)-1,3,4-thiadiazol-2-yl)-2-(3-oxo-1,4-diazepan-1-yl)nicotinamide]",1000 to 10000 nM
3,"O=C(Nc1nnc(OCc2ccc(Cl)cc2)s1)c1cccnc1N1CCOc2ccccc21 [Example 66, N-(5-((4-chlorobenzyl)oxy)-1,3,4-thiadiazol-2-yl)-2-(2,3-dihydro-4H-benzo[b][1,4]oxazin-4-yl)nicotinamide]",1000 to 10000 nM
4,"COc1ccccc1-c1ncccc1C(=O)Nc1nnc(OCc2ccc(Cl)cc2)s1 [Example 67, N-(5-((4-chlorobenzyl)oxy)-1,3,4-thiadiazol-2-yl)-2-(2-methoxyphenyl)nicotinamide]",1000 to 10000 nM
5,"COc1ccccc1-c1nc(C#N)ccc1C(=O)Nc1nnc(OCc2ccc(Cl)cc2)s1 [Example 71, N-(5-((4-chlorobenzyl)oxy)-1,3,4-thiadiazol-2-yl)-6-cyano-2-(2-methoxyphenyl)-nicotinamide]",≤ 200 nM
6,"N#Cc1ccc(C(=O)Nc2nnc(OCc3ccc(Cl)cc3)s2)c(N2CCOCC2)c1 [Example 72, N-(5-((4-chlorobenzyl)oxy)-1,3,4-thiadiazol-2-yl)-4-cyano-2-morpholinobenzamide]",200 to 500 nM
7,"CN(C)C(=O)c1cc(N2CCOCC2)c(C(=O)Nc2nnc(OCc3ccc(Cl)cc3)s2)cn1 [Example 73, N^5-(5-((4-chlorobenzyl)oxy)-1,3,4-thiadiazol-2-yl)-N2,N2-dimethyl-4-morpholinopyridine-2,5-dicarboxamide]",1000 to 10000 nM
8,"O=C(Nc1nnc(OCc2ccc(Cl)cc2)s1)c1cccnc1-c1cc[nH]c(=O)c1 [Example 74, N-(5-((4-chlorobenzyl)oxy)-1,3,4-thiadiazol-2-yl)-2′-hydroxy-[2,4′-bipyridine]-3-carboxamide or its tautomer N-(5-((4-chlorobenzyl)oxy)-1,3,4-thiadiazol-2-yl)-2′-oxo-1′,2′-dihydro-[2,4′-bipyridine]-3-carboxamide]",500 to 1000 nM
9,"N#Cc1ccc(C(=O)Nc2nnc(OCc3ccc(Cl)cc3)s2)c(N2CCNC(=O)C2)n1 [Example 76, N-(5-((4-chlorobenzyl)oxy)-1,3,4-thiadiazol-2-yl)-6-cyano-2-(3-oxopiperazin-1-yl)nicotinamide]",≤ 200 nM
10,"COc1ccccc1-c1ccncc1C(=O)Nc1nnc(OCc2ccc(Cl)cc2)s1 [Example 77, N-[5-[(4-chlorophenyl)methoxy]-1,3,4-thiadiazol-2-yl]-4-(2-methoxyphenyl)pyridine-3-carboxamide]",≤ 200 nM
11,"CC(=O)Nc1cc(N2CCOCC2)c(C(=O)Nc2nnc(OCc3ccc(Cl)cc3)s2)cn1 [Example 78, 6-acetamido-N-(5-((4-chlorobenzyl)oxy)-1,3,4-thiadiazol-2-yl)-4-morpholinonicotinamide]",1000 to 10000 nM
12,"O=C(Nc1nnc(OCc2ccc(Cl)cc2)s1)c1cccnc1-c1ccc(=O)[nH]c1 [Example 79, N-(5-((4-chlorobenzyl)oxy)-1,3,4-thiadiazol-2-yl)-6′-oxo-1′,6′-dihydro-[2,3′-bipyridine]-3-carboxamide or its tautomer N-(5-((4-chlorobenzyl)oxy)-1,3,4-thiadiazol-2-yl)-6′-hydroxy-[2,3′-bipyridine]-3-carboxamide]",500 to 1000 nM
13,"Cn1cc(-c2ncccc2C(=O)Nc2nnc(OCc3ccc(Cl)cc3)s2)ccc1=O [Example 80, N-(5-((4-chlorobenzyl)oxy)-1,3,4-thiadiazol-2-yl)-1′-methyl-6′-oxo-1′,6′-dihydro-[2,3′-bipyridine]-3-carboxamide]",200 to 500 nM
14,"COc1ccccc1-n1nncc1C(=O)Nc1nnc(OCc2ccc(F)cc2)s1 [Example 82, N-(5-((4-fluorobenzyl)oxy)-1,3,4-thiadiazol-2-yl)-1-(2-methoxyphenyl)-1H-1,2,3-triazole-5-carboxamide]",≤ 200 nM
15,"O=C(Nc1nnc(OCc2ccc(Cl)cc2)s1)c1cnccc1N1CCN(CCN2CCOCC2)C(=O)C1 [Example 83, N-[5-[(4-chlorophenyl)methoxy]-1,3,4-thiadiazol-2-yl]-4-[4-[2-(morpholin-4-yl)ethyl]-3-oxopiperazin-1-yl]pyridine-3-carboxamide]",500 to 1000 nM
16,"N#Cc1ccc(C(=O)Nc2nnc(OCc3ccc(Br)cc3)s2)c(N2CCOC3(CC3)C2)n1 [Example 85, N-(5-((4-bromobenzyl)oxy)-1,3,4-thiadiazol-2-yl)-6-cyano-2-(4-oxa-7-azaspiro[2.5]octan-7-yl)nicotinamide]",≤ 200 nM
17,"N#Cc1ccc(C(=O)Nc2nnc(OCc3ccc(Br)cc3)s2)c(N2CCNC(=O)C2)n1 [Example 88, N-(5-((4-bromobenzyl)oxy)-1,3,4-thiadiazol-2-yl)-6-cyano-2-(3-oxopiperazin-1-yl)nicotinamide]",≤ 200 nM
18,"COc1ccccc1-c1ccncc1C(=O)Nc1nnc(OCc2ccc(Cl)cn2)s1 [Example 89, N-(5-((5-chloropyridin-2-yl)methoxy)-1,3,4-thiadiazol-2-yl)-4-(2-methoxyphenyl)nicotinamide]",≤ 200 nM
19,"COc1ccccc1-c1ccncc1C(=O)Nc1nnc(OCC2CC2)s1 [Example 90, N-(5-(cyclopropylmethoxy)-1,3,4-thiadiazol-2-yl)-4-(2-methoxyphenyl)nicotinamide]",500 to 1000 nM
20,"O=C(Nc1nnc(OCc2ccc(Cl)cc2)s1)c1cnccc1-c1ccccc1OC1CC1 [Example 93, N-(5-((4-chlorobenzyl)oxy)-1,3,4-thiadiazol-2-yl)-4-(2-cyclopropoxyphenyl)nicotinamide]",≤ 200 nM
21,"COc1ccccc1-c1cnccc1C(=O)Nc1nnc(OCc2ccc(Cl)cc2)s1 [Example 95, N-(5-((4-chlorobenzyl)oxy)-1,3,4-thiadiazol-2-yl)-3-(2-methoxyphenyl)isonicotinamide]",≤ 200 nM
22,"COc1ccccc1-c1cc(C#N)ncc1C(=O)Nc1nnc(OCc2ccc(Cl)cn2)s1 [Example 96, N-(5-((5-chloropyridin-2-yl)methoxy)-1,3,4-thiadiazol-2-yl)-6-cyano-4-(2-methoxyphenyl)nicotinamide]",≤ 200 nM

# Second part, the molecule after the results:
row,IC50,SMILES
1,500 to 1000 nM,"O=C1CCN(c2ncccc2C(=O)Nc2nnc(OCc3ccc(Cl)cc3)s2)CCN1 [Example 61, N-(5-((4-chlorobenzyl)oxy)-1,3,4-thiadiazol-2-yl)-2-(5-oxo-1,4-diazepan-1-yl)nicotinamide]"
2,500 to 1000 nM,"CNC(=O)c1cc(N2CCOCC2)c(C(=O)Nc2nnc(OCc3ccc(Cl)cc3)s2)cn1 [Example 64, N^5-(5-((4-chlorobenzyl)oxy)-1,3,4-thiadiazol-2-yl)-N2-methyl-4-morpholinopyridine-2,5-dicarboxamide]"
3,1000 to 10000 nM,"O=C(Nc1nnc(OCc2ccc(-c3ncco3)cc2)s1)c1cccnc1N1CCOCC1 [Example 65, 2-morpholino-N-(5-((4-(oxazol-2-yl)benzyl)oxy)-1,3,4-thiadiazol-2-yl)nicotinamide]"
4,1000 to 10000 nM,"O=C(Nc1nnc(OCc2ccc(Cl)cc2)s1)c1cccnc1N1CCN(CCO)C(=O)C1 [Example 68, N-(5-((4-chlorobenzyl)oxy)-1,3,4-thiadiazol-2-yl)-2-(4-(2-hydroxyethyl)-3-oxopiperazin-1-yl)nicotinamide]"
5,500 to 1000 nM,"COc1cc(N2CCOCC2)c(C(=O)Nc2nnc(OCc3ccc(Cl)cc3)s2)cn1 [Example 75, N-(5-((4-chlorobenzyl)oxy)-1,3,4-thiadiazol-2-yl)-6-methoxy-4-morpholino-nicotinamide]"
6,1000 to 10000 nM,"O=C(O)c1cc(N2CCOCC2)c(C(=O)Nc2nnc(OCc3ccc(Cl)cc3)s2)cn1 [Example 84, 5-((5-((4-chlorobenzyl)oxy)-1,3,4-thiadiazol-2-yl)carbamoyl)-4-morpholinopicolinic acid]"
7,≤ 200 nM,"COc1ccccc1-n1cncc1C(=O)Nc1nnc(OCc2ccc(Br)cc2)s1 [Example 86, N-(5-((4-bromobenzyl)oxy)-1,3,4-thiadiazol-2-yl)-1-(2-methoxyphenyl)-1H-imidazole-5-carboxamide]"
8,500 to 1000 nM,"CNC(=O)c1cc(N2CCNC(=O)CC2)c(C(=O)Nc2nnc(OCc3ccc(Cl)cc3)s2)cn1 [Example 87, N^5-(5-((4-chlorobenzyl)oxy)-1,3,4-thiadiazol-2-yl)-N2-methyl-4-(5-oxo-1,4-diazepan-1-yl)pyridine-2,5-dicarboxamide]"
9,≤ 200 nM,"COc1ccccc1-c1cc(C#N)ncc1C(=O)Nc1nnc(OCc2ccc(Cl)cc2)s1 [Example 92, N-(5-((4-chlorobenzyl)oxy)-1,3,4-thiadiazol-2-yl)-6-cyano-4-(2-methoxyphenyl)nicotinamide]"
10,1000 to 10000 nM,"O=C(Nc1nnc(OCc2ccc(Cl)cc2)s1)c1cccnc1-c1ccccc1 [Example 94, N-(5-((4-chlorobenzyl)oxy)-1,3,4-thiadiazol-2-yl)-2-phenylnicotinamide]"

# Source: patent US12509454B2, “Thiadiazolyl derivatives” (IDEAYA Biosciences, Inc., priority 2019, dated 2025)
